The values that follow come from patent US20210299079A1, “MONOMETHYL FUMARATE-CARRIER CONJUGATES AND METHODS OF THEIR USE” (Flagship Pioneering Innovations V, Inc., priority 2018, published 2021).

Each structure is given as a SMILES string. Where a name gives a salt, the structure may show the parent alone.

Common to all, as to type: in vitro ADME
A short description of series [1]: Stability of conjugates in Simulated Gastric Fluid (SGF). The conditions noted are these: SGF pH 1.6 with pepsin, 37° C., 1 μM compound. The procedure: Assay 1. Stability of conjugates in Simulated Gastric Fluid (SGF). This assay was used to assess the stability of a conjugate in a stomach.
Medium was prepared by dissolving 2 g of sodium chloride in 0.6 L in ultrapure water (MilliQ®, Millipore Sigma, Darmstadt, Germany). The pH was adjusted to 1.6 with 1N hydrochloric acid, and the volume was then adjusted to 1 L with purified water.
60 mg FaSSIF powder (Biorelevant™, London, UK) were dissolved in 500 mL buffer (above). Pepsin was added (0.1 mg/mL) (Millipore Sigma, Darmstadt, Germany), and the solution was stirred. The resulting SGF media were used fresh for each experiment.
Test compounds were dissolved in DMSO stock to 1 mM. An aliquot of the DMSO stock solution was removed and diluted in the SGF Media in 15 mL falcon tubes to generate a total compound concentration of 1 μM. A 1 mL aliquot was immediately removed and diluted once with 1 volume of acetonitrile for TO timepoint. The mixture was sealed and mixed at 37° C. in an incubator. Aliquots (1 mL) were removed at regular intervals and immediately quenched by the addition of 1 volume of acetonitrile. The resulting samples were analyzed by LC/MS to determine degradation rates in SGF.

Series [2] is described as follows: Stability of conjugates in Simulated Intestinal Fluid (SIF). The conditions noted are these: SIF pH 6.7 with pancreatin, 37° C., 1 μM compound. The procedure: Assay 2. Stability of conjugates in Simulated Intestinal Fluid (SIF). This assay was used to assess the stability of a conjugate in a small intestine.
Phosphate buffer was prepared by dissolving 0.42 g of sodium hydroxide pellets and 3.95 g of monobasic sodium phosphate monohydrate and 6.19 g of sodium chloride in ultrapure water (MilliQ®, Millipore Sigma, Darmstadt, Germany). The pH was adjusted to 6.7 using aq. HCl and aq. NaOH, as necessary, and the solution was diluted with ultrapure water to produce 1 L of the pH 6.7 buffer.
112 mg FaSSIF powder (Biorelevant™, London, UK) was dissolved in 50 mL of the pH 6.7 buffer. 2 to 3 mL of the resulting solution were then added to 500 mg pancreatin (Millipore Sigma, Darmstadt, Germany). The resulting mixture was agitated by finger tapping the vessel containing the mixture until milky suspension formed. At this time, the remainder of the 50 mL FaSSiF/pH 6.7 buffer solution was added. The resulting suspension was flipped upside down 10 times to produce SIF, which was used fresh.
Test compounds were dissolved in DMSO stock to 1 mM. An aliquot of the DMSO stock solution was removed and diluted in the SIF media in 15 mL falcon tubes to produce a mixture with a tested compound concentration of 1 μM. A 1 mL aliquot was immediately removed and diluted once with 1 volume of acetonitrile for TO timepoint. The mixture was sealed and agitated at 37° C. in an incubator. Aliquots (1 mL) were removed at regular intervals and immediately quenched by the addition of 1 volume of acetonitrile. The resulting samples were analyzed by LC/MS to determine degradation rates

Series [3] can be described thus: In vitro Colonic Material Stability Assay. The conditions noted are these: colonic material slurry in YCFAC media, anaerobic, 1 or 10 μM. The procedure:
Assay 3. In vitro Colonic Material Stability Assay. This assay was used to assess the stability of a conjugate in a large intestine. All experiments were performed in an anaerobic chamber containing 90% nitrogen, 5% hydrogen and 5% carbon dioxide. Colonic material was resuspended as a slurry (15% w/v final concentration) in pre-reduced, anaerobically sterilized dilution blanks (Anaerobe Systems AS-908). The colonic material was then inoculated into 96 well plates containing YCFAC media (Anaerobe Systems AS-680) or other suitable media (6.7 μL slurry into 1 mL total media). Compounds or groups of compounds were added to each individual well to reach a final analyte concentration of 1 or 10 μM, and the material was mixed by pipetting. Sample was removed after set timepoints (0, 120, 240, 480, 1440, 2880 minutes after initiation of the assay), quenched with acetonitrile containing internal standard, and analyzed by LC/MS.

Take `CCCC(=O)O[C@@H]1[C@@H](OC(=O)CCC)[C@H](OC(=O)/C=C/C(=O)OC)OC[C@H]1OC(=O)CCC` [Compound 7, Methyl ((2S,3R,4S,5R)-3,4,5-tris(butyryloxy)tetrahydro-2H-pyran-2-yl) fumarate]: the “Assay 1 (SGF) (% Remaining @ 1 hour)” value in series [1] is recorded as “C (C: >75% of the tested compound remaining)”. For the same compound, the “Assay 2 (SIF) (% @ Remaining 4 hours)” value in series [2] is recorded as “A (A: <25% of the tested compound remaining)”. Also, the “Assay 3 (% Remaining at 24 h)” value in series [3] was “C (C: >75% of the tested compound remaining)”.
In the case of `CCCC(=O)O[C@@H]1[C@@H](OC(=O)CCC)[C@@H](OC(=O)/C=C/C(=O)OC)OC[C@@H]1OC(=O)CCC` [Compound 12, Methyl ((2R,3R,4S,5S)-3,4,5-tris(butyryloxy)tetrahydro-2H-pyran-2-yl) fumarate], the “Assay 1 (SGF) (% Remaining @ 1 hour)” value in series [1] is recorded as “C (C: >75% of the tested compound remaining)”. Besides, the “Assay 2 (SIF) (% @ Remaining 4 hours)” value in series [2] is given as “A (A: <25% of the tested compound remaining)”. Moreover, in series [3], the “Assay 3 (% Remaining at 24 h)” value is reported as “C (C: >75% of the tested compound remaining)”.
On to `CCCC(=O)O[C@H]1[C@H](OC(=O)CCC)[C@H](OC(=O)/C=C/C(=O)OC)O[C@@H](C)[C@H]1OC(=O)CCC` [Compound 13, Methyl ((2S,3S,4R,5R,6S)-3,4,5-tris(butyryloxy)-6-methyltetrahydro-2H-pyran-2-yl) fumarate], for which, in series [1], the “Assay 1 (SGF) (% Remaining @ 1 hour)” value was “B (B: 25-75% of the tested compound remaining)”. Besides, the “Assay 2 (SIF) (% @ Remaining 4 hours)” value in series [2] is listed as “A (A: <25% of the tested compound remaining)”. The “Assay 3 (% Remaining at 24 h)” value in series [3] was “C (C: >75% of the tested compound remaining)”.
For `CCCC(=O)OC[C@H]1O[C@H](OC(=O)/C=C/C(=O)OC)[C@H](OC(=O)CCC)[C@@H](OC(=O)CCC)[C@@H]1OC(=O)CCC` [Compound 11, Methyl ((2R,3R,4S,5R,6R)-3,4,5-tris(butyryloxy)-6-((butyryloxy)methyl)tetrahydro-2H-pyran-2-yl) fumarate] the same measures were “B (B: 25-75% of the tested compound remaining)”, “B (B: 25-75% of the tested compound remaining)” and “B (B: 25-75% of the tested compound remaining)”.
As to `CCC(=O)O[C@@H]1[C@@H](OC(=O)CC)[C@H](OC(=O)/C=C/C(=O)OC)OC[C@@H]1OC(=O)CC` [Compound 5, Methyl ((2S,3R,4S,5S)-3,4,5-tris(propionyloxy)tetrahydro-2H-pyran-2-yl) fumarate], the “Assay 1 (SGF) (% Remaining @ 1 hour)” value in series [1] is “C (C: >75% of the tested compound remaining)”. In addition, the “Assay 2 (SIF) (% @ Remaining 4 hours)” value in series [2] is listed as “C (C: >75% of the tested compound remaining)”. Also, the “Assay 3 (% Remaining at 24 h)” value in series [3] is recorded as “A (A: <25% of the tested compound remaining)”.
Consider `CCC(=O)OC[C@H]1O[C@H](OC(=O)/C=C/C(=O)OC)[C@H](OC(=O)CC)[C@@H](OC(=O)CC)[C@@H]1OC(=O)CC` [Compound 4, Methyl ((2R,3R,4S,5R,6R)-3,4,5-tris(propionyloxy)-6-((propionyloxy)methyl)tetrahydro-2H-pyran-2-yl) fumarate], for which, in series [1], the “Assay 1 (SGF) (% Remaining @ 1 hour)” value is recorded as “B (B: 25-75% of the tested compound remaining)”. In series [2], the “Assay 2 (SIF) (% @ Remaining 4 hours)” value is listed as “C (C: >75% of the tested compound remaining)”. Further, the “Assay 3 (% Remaining at 24 h)” value in series [3] is given as “B (B: 25-75% of the tested compound remaining)”.
With `CCC(=O)O[C@H]1[C@@H](OC(=O)/C=C/C(=O)OC)OC[C@@H](OC(=O)CC)[C@H]1OC(=O)CC` [Compound 9, Methyl ((2R,3R,4R,5R)-3,4,5-tris(propionyloxy)tetrahydro-2H-pyran-2-yl) fumarate], in series [1], the “Assay 1 (SGF) (% Remaining @ 1 hour)” value is “C (C: >75% of the tested compound remaining)”. Further, in series [2], the “Assay 2 (SIF) (% @ Remaining 4 hours)” value was “A (A: <25% of the tested compound remaining)”. The “Assay 3 (% Remaining at 24 h)” value in series [3] is on record as “C (C: >75% of the tested compound remaining)”.
